Patent US20050142230A1, “Pharmic activity and manufacturing method of the production produced by six kinds of plant compound” (priority 2003, published 2005)

Test system: male white mice
Experiment: Hypnosis effect taking orally (lost righting reflex half minute)
Type: in vivo
Settings: for The sleep animals: 30 mg/kg, n=25
Method: The male white mice (weighing 18-22 g) were divided into groups at random. Every group had twenty five. Experimental group douched the stomach with the compound by 0.08, 0.3, 0.4 ml/10 g, pentobabital sodium 30 mg/kg, the control group gave the same volumn saline. Then put them into the constant temperature infant cabinet at 37° C. We observed the mumber of the mice sleep. The standard was the half minute continous lost righting reflexs (table 3 was the result). […] The compound wares had hypnosis effect.

Question: How did the The sleep animals (5′) turn out when CCCC(C)C1(CC)C(=O)N=C([O-])NC1=O.[Na+] (centres unmarked) [Pentobabital sodium] was run?
Answer: 20TT

Question: And the The sleep animals (30′)?
Answer: 25TT

Question: What about the The sleep animals (60′) of the same compound?
Answer: 21TT

Question: And the The sleep animals (90′)?
Answer: 13

Question: What about the “Hypnosis effect (in words)” value (30 ml/kg as printed in text, mice) of the same compound?
Answer: let them all sleep
